Data as given in patent US20090270447A1, “2-Aryl-and 2-Heteroarylthiazolyl Compounds, Methods for Their Preparation and Use Thereof” (Wyeth, priority 2008, published 2009).

How the values were obtained:
[1] = system: HCT116 cells (Securin+/+, securin parental cell line HCT116 FB); test: Growth inhibition of securin parental cells (SRB, 5 days); format: cell-based; details: Homo sapiens, HCT-116, 120 h
Method: (§1) IC50 analysis was performed for selected fused heterobicyclic 2-aryl or 2-heteroarylthiazolyl compounds that were tested on HCT116 cells and Securin “knock out” cell lines.
(§2) Cell Culture—HCT116 and securin “knock out” cells. HCT116 and securin “knock out” cells (D8 and F3) were grown in RPMI+5% fetal bovine serum and gentamycin. They were maintained in a humidified 37° C. incubator with 5% CO2. Since the securin “knock out” cells have active chromosomal instability, cells were used at a low passage number of 2-13 passages. At or before passage 13 a new vial of cells was thawed and used for the screen. Cell seeding—HCT116 cells and securin “knock out” cells were trypsinized and suspenended in RPMI+5% FBS at a density of 27,000 cells/mL. HCT116 and securin “knock out” cells were seeded separately in wells of a 96-well plate (Falcon Cat # 35-3872) at a cell density of 4000 cells per well. Cells were seeded in 150 μL of RPMI media containing 5% FBS and gentamycin. Cell seeding was performed under aseptic conditions. Cells were allowed to attach and grow overnight in a humidified 37° C. incubator.
(§3) Compound Dilution and Dispensation. A series of stock solutions, 10 mg/ml of 2-aryl- or 2-heteroarylthiazolyl compounds to be tested, were brought to room temperature. The compounds were diluted 1:50 in RPMI+5% FBS (Highest concentration 200 μg/mL). The compounds were then serially diluted 1:3 across a deep-well titration plate resulting in final concentrations in the plate of 200, 66.7, 22.2, 7.4, 2.4, 0.8 0.27, 0.091, 0.03, 0.01, and 0.0034 μg/mL with one well left without a compound. 50 μL of this dilution series was added to the 150 μL of cells to result in a final concentration of compound in with the cells of 50, 16.6, 5.5, 1.8, 0.6, 0.2, 0.068, 0.023, 0.0076, 0.0025, and 0.00084 μg/mL. The dilution and addition of compounds to the plates is performed using a Multimek 96 Robot (Beckman Coulter).
(§4) Incubation and analysis. After dosing, the cells in the 96 well plates were returned to the humidified 37° C. incubator. The compounds remained on the cells for 5 days. After 5 days, the cells were fixed to the plates with the addition of 50 μL of 50% (vol/vol) Trichloro Acetic Acid ([…]). The cells were fixed at 4° C. for 1 hour. The plates were washed 5 times in distilled water and allowed to dry. The cells were stained with 0.4% sulforhodamine B (Sigma) in 1% acetic acid. The cells were stained for 15 minutes at room temperature. The plates were then washed 3 times in 1% acetic acid. The plates were dried and the dye was solubilized in 10 mM Tris at pH 8.0. The plates were read on the Absorbence 560 setting on a Victor^2 V Model 1420 Multilabel HTS counter (Perkin Elmer).
(§5) Analysis of Results—IC50 data. Absorbence data was read off of the Victor and was converted to a percentage of the control (untreated) values. IC50 values were graphed and the point at which a 50% inhibition of the control level was determined. […] If the model was not able to determine an IC50, the IC50 was assigned to the lowest concentration that gives a 50% or greater decrease in absorbence compared to control levels. If the calculated IC50 value for a cell line exceeds the top concentration for the assay (typically 50 μg/mL), the assay was scored as >50.

[2] = system: securin "knock out" cells D8 (Securin−/−); test: Growth inhibition of securin knock out cells D8 (SRB, 5 days); format: cell-based; details: for IC50: 120 h, securin knock out D8 cells, 5 days, SRB; for Selectivity Ratio D8: IC50 HCT116 / IC50 securin KO D8
Method: as §1, §2, §3, §4, §5
(§6) Selectivity Ratio. The Selectivity Ratio is the ratio of IC50s between the parent cell line and the knock out cell line and is always a positive number and is typically an integer.

[3] = system: securin "knock out" cells F3 (Securin−/−); test: Growth inhibition of securin knock out cells F3 (SRB, 5 days); format: cell-based; details: for IC50: 120 h, securin knock out F3 cells, 5 days, SRB; for Selectivity Ratio F3: IC50 HCT116 / IC50 securin KO F3
Method: as §1, §2, §3, §4, §5, §6

[4] = system: xenografts of a human breast carcinoma cell line (MDA-MB-361); test: In-vivo activity in tumor xenografts
Method: Selected fused heterobicyclic 2-aryl- or 2-heteroarylthiazolyl compounds of formula I were tested for their activity in a securin parental cell line (HCT116 FB) and a securin knockout (KO) cell line. […] The in-vivo activity of selected fused heterobicyclic 2-arylarylthiazolyl compounds of formula I was studied in cells growing as xenografts in athymic (nude) mice. The effect of Examples 5-7 and 10 was studied in xenografts of a human breast carcinoma cell line (MDA-MB-361).
In-vivo Activity in Tumor Xenografts. The effectiveness of Examples 5-7 versus Vincristine at controlling tumor growth was studied and the results are summarized in Table 2 and FIG. 1. The 2-arylthiazolyl compounds were formulated 0.5% Methocel™ (methylcellulose) and 0.4% Tween 80™ (polysorbate-80 and oleic acid) and administered daily orally (PO), by gavage or intraperiotenially (IP) by syringe. Tumor mass [(length×width^2)/2] was determined every 7 days. Inhibition of tumor growth was calculated relative to conventional (vehicle treated) controls.

[5] = 20 mg/kg/dose PO, days 1 through 20
[6] = 50 mg/kg/dose PO, days 1 through 20
[7] = 0.8 mg/kg/dose IP, days 1, 5 and 9

| SMILES | IC50 [1] [µM] | IC50 [2] [µM] | Selectivity Ratio D8 [2] | IC50 [3] [µM] | Selectivity Ratio F3 [3] | also measured |
| --- | --- | --- | --- | --- | --- | --- |
| CN(C)c1ccc(-c2nc3c(s2)[C@@H](O)CNC3)cc1 [Example 4, (S)-2-(4-dimethylamino-phenyl)-4,5,6,7-tetrahydro[1,3]thiazolo[4,5-c]pyridin-7-ol] | 169 | 2.19 | 77 | 3.39 | 50 |  |
| OC1CCCc2nc(-c3ccc(N4CCCC4)cc3)sc21 (centres unmarked) [2-(4-pyrrolidiny-1-ylphenyl)-4,5,6,7-tetrahydro-1,3-benzothiazol-7-ol, reference compound] |  |  |  |  |  | S/T = # of Survivors/# of Treated on Day +21 post tumor staging [4, 5]: 10/10; % T/C Day 7 [4, 5]: 101%; Relative Tumor Growth Day 7 [4, 5]: 1.67; % T/C Day 14 [4, 5]: 109%; Relative Tumor Growth Day 14 [4, 5]: 5.48; % T/C Day 21 [4, 5]: 132%; Relative Tumor Growth Day 21 [4, 5]: 12.07; S/T = # of Survivors/# of Treated on Day +21 post tumor staging [4, 6]: 10/10; % T/C Day 7 [4, 6]: 95%; Relative Tumor Growth Day 7 [4, 6]: 1.57; % T/C Day 14 [4, 6]: 78%; Relative Tumor Growth Day 14 [4, 6]: 3.93; % T/C Day 21 [4, 6]: 95%; Relative Tumor Growth Day 21 [4, 6]: 8.73 |
| CN(C)c1ccc(-c2nc3c(s2)C(O)CNC3)cc1 (racemic) [Example 2, 2-(4-dimethylamino-phenyl)-4,5,6,7-tetrahydro[1,3]thiazolo[4,5-c]pyridin-7-ol] | 86.4 | 0.931 | 93 | 1.28 | 68 |  |
| CC[C@]1(O)C[C@H]2CN(CCc3c([nH]c4ccccc34)[C@@](C(=O)OC)(c3cc4c(cc3OC)N(C=O)[C@H]3[C@@](O)(C(=O)OC)[C@H](OC(C)=O)[C@]5(CC)C=CCN6CC[C@]43[C@@H]65)C2)C1 [Vincristine, reference compound] |  |  |  |  |  | % T/C Day 7 [4, 7]: 80%; Relative Tumor Growth Day 7 [4, 7]: 1.33; % T/C Day 14 [4, 7]: 43%; Relative Tumor Growth Day 14 [4, 7]: 2.14; % T/C Day 21 [4, 7]: 58%; Relative Tumor Growth Day 21 [4, 7]: 5.29 |
| O=[N+]([O-])c1cc(N2CCCC2)ccc1-c1nc2c(s1)C(O)CNC2 (centres unmarked) [Example 15, 2-(2-nitro-4-pyrrolidin-1-yl-phenyl)-4,5,6,7-tetrahydro[1,3]thiazolo[4,5-c]pyridin-7-ol] | 28.4 | 2.95 | 10 | 4.6 | 6 |  |
| CN1Cc2nc(-c3ccc(N(C)C)cc3)sc2C(O)C1 (centres unmarked) [Example 1, 2-(4-dimethylamino-phenyl)-5-methyl-4,5,6,7-tetrahydro[1,3]thiazolo[4,5-c]pyridine-7-ol] | 23.9 | 2.48 | 10 | 3.07 | 8 |  |
| CN(C)c1ccc(-c2nc3c(s2)[C@H](O)CNC3)cc1 [Example 3, (R)-2-(4-dimethylamino-phenyl)-4,5,6,7-tetrahydro[1,3]thiazolo[4,5-c]pyridin-7-ol] | 66.4 | 0.395 | 168 | 0.555 | 120 |  |
| COC(=O)c1cc(N(C)C)ccc1-c1nc2c(s1)C(O)CNC2 (centres unmarked) [Example 9, methyl 5-(dimethylamino)-2-(7-hydroxy-4,5,6,7-tetrahydro[1,3]thiazolo[4,5-c]pyridin-2-yl)benzoate] | 100 | 0.53 | 189 | 0.67 | 149 |  |
| CN(C)c1ccc(-c2nc3c(s2)C(O)CNC3)c(CO)c1 (centres unmarked) [Example 8, 2-(2-hydroxymethyl-4-dimethylamino-phenyl)-4,5,6,7-tetrahydro[1,3]thiazolo[4,5-c]pyridine-7-ol] | 100 | 0.0989 | 1011 | 0.107 | 936 |  |
| CN(C)c1ccc(-c2nc3c(s2)C(O)COC3)cc1Br (centres unmarked) [Example 16, 2-[3-bromo-4-(dimethylamino)phenyl]-6,7-dihydro-4H-pyrano[3,4-d][1,3]thiazol-7-ol] | 41.6 | 14.3 | 3 | 15.2 | 3 |  |
| COC(=O)c1cc(N2CCCC2)ccc1-c1nc2c(s1)C(O)CNC2 (centres unmarked) [Example 13, Methyl 5-(4-pyrrolidin-1-yl)-2-(7-hydroxy-4,5,6,7-tetrahydro[1,3]thiazolo[4,5-c]pyridin-2-yl)benzoate] | 59.2 | 0.342 | 173 | 0.516 | 115 |  |
| OCc1cc(N2CCCC2)ccc1-c1nc2c(s1)[C@H](O)CNC2 [Example 11, (7R)-2-(2-hydroxymethyl-4-pyrrolidin-1-yl-phenyl)-4,5,6,7-tetrahydro[1,3]thiazolo[4,5-c]pyridin-7-ol] | 91.4 | 0.0406 | 2251 | 0.0483 | 1892 |  |
| CN(C)c1ccc(-c2nc3c(s2)C(O)COC3)cc1 (centres unmarked) [Example 17, 2-[4-(dimethylamino)phenyl]-6,7-dihydro-4H-pyrano[3,4-d][1,3]thiazol-7-ol] | 51.1 | 1.12 | 46 | 1.53 | 33 |  |
| Nc1cc(N2CCCC2)ccc1-c1nc2c(s1)C(O)CNC2 (centres unmarked) [Example 14, 2-(2-amino-4-pyrrolidin-1-yl-phenyl)-4,5,6,7-tetrahydro[1,3]thiazolo[4,5-c]pyridin-7-ol] | 48.1 | 0.0379 | 1269 | 0.0486 | 990 |  |
| OCc1cc(N2CCCC2)ccc1-c1nc2c(s1)C(O)CNC2 (racemic) [Example 10, (7R,7S)-2-(2-hydroxymethyl-4-pyrrolidin-1-yl-phenyl)-4,5,6,7-tetrahydro[1,3]thiazolo[4,5-c]pyridin-7-ol] | 80.6 | 0.0808 | 998 | 0.0944 | 854 | selectivity ratio (IC50 HCT116 FB/IC50 securin KO), in words [2]: high selectivity ratio |
